The values below come from ChEMBL document CHEMBL3751836, “Novel peptidomimetics related to gonadotropin-releasing hormone (GnRH)” (Medchemcomm, 2015).

For series [1], the target named is T1, Gonadotropin-releasing hormone receptor (Homo sapiens) (UniProt P30968).
T1 sequence (whole entry): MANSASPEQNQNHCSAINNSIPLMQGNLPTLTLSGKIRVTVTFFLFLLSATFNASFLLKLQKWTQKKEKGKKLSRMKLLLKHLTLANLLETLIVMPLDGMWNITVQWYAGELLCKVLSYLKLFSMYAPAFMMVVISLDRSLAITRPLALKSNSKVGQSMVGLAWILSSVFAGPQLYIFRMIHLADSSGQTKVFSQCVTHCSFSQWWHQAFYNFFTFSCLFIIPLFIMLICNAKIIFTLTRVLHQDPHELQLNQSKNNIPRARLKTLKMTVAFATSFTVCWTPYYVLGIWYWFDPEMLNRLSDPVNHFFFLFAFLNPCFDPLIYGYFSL
As to the kind of experiment: (§1) Displacement of [125I]-DTyr6-His5-GnRH from human type 1 GnRH receptor expressed in HEK293 cell membranes after 16 to 19 hrs by gamma counting analysis.

Series [2] deals with T2, Gonadotropin-releasing hormone receptor (Homo sapiens, UniProt P30968).
T2 sequence (P30968 whole entry): T1 sequence (whole entry)
The description is as §1.

Series [3] in a line: Metabolic stability in rat plasma at 100 uM after 4 hrs by HPLC/mass spectrometric analysis relative to GnRH1. It counts as ADME, cell-free. To be noted: read-out: Stability.
Series [4] can be described thus: Metabolic stability in rat plasma assessed as half life at 100 uM by HPLC/mass spectrometric analysis. The series is classed as ADME, cell-free.
The subject of another series is HEK293. As to the kind of experiment: Antiproliferative activity against HEK293 cells expressing human type 1 GnRH receptor at 1 uM after 4 days by MTT assay. The series is classed as functional, cell-based. A general note: Tetrazolium assays rely on reduction of a dye to a coloured formazan, in cell work by metabolically active cells.
A short description of series [5]: Metabolic stability in rat plasma at 100 uM after 4 hrs by HPLC/mass spectrometric analysis relative to GnRH2. The series is classed as ADME, cell-free. To be noted: read-out: Stability.

As usually defined, the IC50 is the midpoint of a concentration-inhibition curve. What is called half-life is the time in which the quantity being followed falls by half.

Calls of active or inactive are those of the source. No cut-off for these calls is given here.

For the compound `CC(C)C[C@H](NC(=O)C1(NC(=O)[C@H](Cc2ccc(O)cc2)NC(=O)[C@H](CO)NC(=O)[C@H](Cc2c[nH]c3ccccc23)NC(=O)[C@H](Cc2c[nH]cn2)NC(=O)[C@@H]2CCC(=O)N2)CCCCC1)C(=O)N[C@@H](CCCNC(=N)N)C(=O)N1CCC[C@H]1C(=O)NCC(N)=O`, the Activity result in series [1] was “Dose-dependent effect”. Further, the IC50 in series [2] was 550 nM. Also, in series [3], the remaining at 4 h, 100 µM came to 15%. The half-life at 100 µM in series [4] is 3.96 h.

On to `NC(=O)CNC(=O)[C@H]1CCCN1C(=O)[C@H](Cc1ccc(O)cc1)NC(=O)[C@H](Cc1c[nH]c2ccccc12)NC(=O)C1(NC(=O)[C@@H](Cc2cnc[nH]2)NC(=O)[C@@H](CO)NC(=O)[C@@H](Cc2c[nH]c3ccccc23)NC(=O)[C@@H](Cc2c[nH]cn2)NC(=O)[C@H]2CCC(=O)N2)CCC1`, for which, in series [1], the Activity entry is “Dose-dependent effect”. The same compound had an IC50 in series [2] of 191 nM.

Turning to `NC(=O)CNC(=O)[C@H]1CCCN1C(=O)[C@H](Cc1ccc(O)cc1)NC(=O)[C@H](Cc1c[nH]c2ccccc12)NC(=O)C1(NC(=O)[C@@H](Cc2cnc[nH]2)NC(=O)[C@@H](CO)NC(=O)[C@@H](Cc2c[nH]c3ccccc23)NC(=O)[C@@H](Cc2c[nH]cn2)NC(=O)[C@H]2CCC(=O)N2)CCCC1`, the Activity entry in series [1] is “Dose-dependent effect”. The same compound showed an IC50 in series [2] of 282 nM.

As for `CC(C)C[C@H](NC(=O)CNC(=O)[C@H](Cc1ccc(O)cc1)NC(=O)[C@H](CO)NC(=O)[C@H](Cc1c[nH]c2ccccc12)NC(=O)[C@H](Cc1cnc[nH]1)NC(=O)[C@@H]1CCC(=O)N1)C(=O)N[C@@H](CCCNC(=N)N)C(=O)N1CCC[C@H]1C(=O)NCC(N)=O` [GONADORELIN], the half-life at 100 µM in series [4] was 2.63 h.

For `CCNC(=O)[C@@H]1CCCN1C(=O)[C@H](CCCNC(=N)N)NC(=O)[C@H](CC(C)C)NC(=O)[C@@H](CC(C)C)NC(=O)[C@H](Cc1ccc(O)cc1)NC(=O)[C@H](CO)NC(=O)[C@H](Cc1c[nH]c2ccccc12)NC(=O)[C@H](Cc1c[nH]cn1)NC(=O)[C@@H]1CCC(=O)N1`, the outcome with HEK293 was Active.

Regarding `CC(C)C[C@H](NC(=O)C1(NC(=O)[C@H](Cc2ccc(O)cc2)NC(=O)[C@H](CO)NC(=O)[C@H](Cc2c[nH]c3ccccc23)NC(=O)[C@H](Cc2c[nH]cn2)NC(=O)[C@@H]2CCC(=O)N2)CCCC1)C(=O)N[C@@H](CCCNC(=N)N)C(=O)N1CCC[C@H]1C(=O)NCC(N)=O`, the Activity result in series [1] was “Dose-dependent effect”. In series [2], this compound gave a concentration for half-maximal inhibition (IC50) of 589 nM.

In the case of `CC(C)C[C@H](NC(=O)CN1CN(c2ccccc2)C2(CCN(C(=O)[C@H](Cc3c[nH]c4ccccc34)NC(=O)[C@H](Cc3c[nH]cn3)NC(=O)[C@@H]3CCC(=O)N3)CC2)C1=O)C(=O)N[C@@H](CCCNC(=N)N)C(=O)N1CCC[C@H]1C(=O)NCC(N)=O`, the Activity entry in series [1] is “Dose-dependent effect”. The compound also had a concentration for half-maximal inhibition (IC50) in series [2] of 724 nM.

In the case of `NC(=O)CNC(=O)[C@@H]1CCCN1C(=O)[C@@H](Cc1ccc(O)cc1)NC(=O)[C@@H](Cc1c[nH]c2ccccc12)NC(=O)C1(NC(=O)[C@H](Cc2cnc[nH]2)NC(=O)[C@H](CO)NC(=O)[C@H](Cc2c[nH]c3ccccc23)NC(=O)[C@H](Cc2c[nH]cn2)NC(=O)[C@@H]2CCC(=O)N2)CCCCC1`, the result in the series on HEK293 was Active. In series [5], the remaining at 4 h, 100 µM came to 15%. For the same compound, in series [1], the Activity entry is “Dose-dependent effect”. Also, the IC50 in series [2] is 407 nM.
